Laboratory results taken from ChEMBL document CHEMBL5518164, “Membrane-permeable tenofovir-di- and monophosphate analogues” (Eur J Med Chem, 2024).
Activity calls are given as the source filed them. No cut-off for these calls is given here.

Key:
[1] = Prodrug conversion of the compound in phosphate buffer saline assessed as (R)-9-(2-(phosphonomethoxy)propyl)adenine formation by measuring half life at pH 7.3 by RP18-HPLC analysis; type: ADME
[2] = Prodrug conversion of the compound in phosphate buffer saline assessed as (R)-9-(2-(phosphonomethoxy)propyl)adenine formation by measuring half life in presence of pig liver esterase at pH 7.3 by RP18-HPLC analysis; type: ADME, Sus scrofa
[3] = Half life of the compound in human CEM/0 cell extracts by RP18-HPLC analysis; type: ADME, CCRF-CEM
[4] = Lipophilicity of the compound assessed as retention time by RP-HPLC analysis; type: physicochemical
[5] = test system: Human immunodeficiency virus 1; assay: Antiviral activity against HIV-1 HE infected in wild type human CEM/0 cells assessed as inhibition of virus-induced giant cell formation incubated for 4 to 5 days by light microscopy; type: functional, organism-based; settings: Human immunodeficiency virus 1, HE, CCRF-CEM
[6] = test system: Human immunodeficiency virus 2; assay: Antiviral activity against HIV-2 ROD infected in wild type human CEM/0 cells assessed as inhibition of virus-induced giant cell formation incubated for 4 to 5 days by light microscopy; type: functional, organism-based; settings: Human immunodeficiency virus 2, ROD, CCRF-CEM
[7] = test system: Human immunodeficiency virus 2; assay: Antiviral activity against HIV-2 ROD infected in thymidine kinase deficient human CEM cells assessed as inhibition of virus-induced giant cell formation incubated for 4 to 5 days by light microscopy; type: functional, organism-based; settings: Human immunodeficiency virus 2, ROD, CCRF-CEM
[8] = Cytotoxicity against human CEM cells assessed as inhibition of cell proliferation; type: toxicity, cell-based, CCRF-CEM
[9] = Selectivity index, ratio of CC50 for cytotoxicity against human CEM cells to EC50 for antiviral activity against HIV-2 ROD infected in thymidine kinase deficient human CEM cells; type: toxicity, cell-based; settings: read-out: Ratio CC50/EC50
[10] = test system: Human immunodeficiency virus 1; assay: Potency index, ratio of Tenofovir EC50 to test compound EC50 for antiviral activity against HIV-1 HE infected in wild type human CEM/0 cells; type: functional
[11] = test system: Human immunodeficiency virus 2; assay: Potency index, ratio of Tenofovir EC50 to test compound EC50 for antiviral activity against HIV-2 ROD infected in wild type human CEM/0 cells; type: functional
[12] = test system: Human immunodeficiency virus; assay: Substrate activity at HIV reverse transcriptase assessed as n+1 band formation incubated for 30 mins in presence of primer/template mixture by primer extension assay based fluorescence analysis
[13] = test system: Human immunodeficiency virus; assay: Substrate activity at HIV reverse transcriptase assessed as n+1 band formation incubated for 30 mins in presence of primer/template mixture and dNTPs by primer extension assay based fluorescence analysis
[14] = test system: Human immunodeficiency virus; assay: Substrate activity at HIV reverse transcriptase assessed as full elongation of primer by measuring n+5 band formation incubated for 30 mins in presence of primer/template mixture and dNTPs by primer extension assay based fluorescence analysis
[15] = test system: Human immunodeficiency virus; assay: Substrate activity at HIV reverse transcriptase assessed as elongation of primer at 97.6 to 12500 uM incubated for 30 mins in presence of primer/template mixture and dNTPs by primer extension assay based fluorescence analysis; settings: dose 97.6-12500 µM
[16] = test system: Human immunodeficiency virus; assay: Inhibition of HIV reverse transcriptase assessed as inhibition of elongation of primer at 25000 uM incubated for 30 mins in presence of primer/template mixture and dNTPs by primer extension assay based fluorescence analysis
[17] = test system: Human immunodeficiency virus; assay: Substrate activity at HIV reverse transcriptase assessed as n+1 band formation at 25000 uM incubated for 30 mins in presence of primer/template mixture and dNTPs by primer extension assay based fluorescence analysis
[18] = test system: Human immunodeficiency virus; assay: Inhibition of HIV reverse transcriptase assessed as inhibition of elongation of primer at 25000 uM incubated for 30 mins in presence of primer/template mixture and 250 uM dNTPs by primer extension assay based fluorescence analysis
[19] = test system: Human immunodeficiency virus; assay: Substrate activity at HIV reverse transcriptase assessed as elongation of primer at 97.6 to 12500 uM incubated for 30 mins in presence of primer/template mixture and 250 uM dNTPs by primer extension assay based fluorescence analysis; settings: dose 97.6-12500 µM
[20] = test system: Human immunodeficiency virus; assay: Substrate activity at HIV reverse transcriptase assessed as n+1 band formation at 97.6 to 12500 uM incubated for 30 mins in presence of primer/template mixture and 250 uM dNTPs by primer extension assay based fluorescence analysis; settings: dose 97.6-12500 µM
[21] = molecular target: T1, DNA polymerase subunit gamma-1 (Homo sapiens) (UniProt P54098); assay: Substrate activity at human DNA polymerase gamma assessed as elongation of primer at 250 uM incubated for 120 mins in presence of primer/template mixture by primer extension assay based fluorescence analysis
T1 sequence (whole entry): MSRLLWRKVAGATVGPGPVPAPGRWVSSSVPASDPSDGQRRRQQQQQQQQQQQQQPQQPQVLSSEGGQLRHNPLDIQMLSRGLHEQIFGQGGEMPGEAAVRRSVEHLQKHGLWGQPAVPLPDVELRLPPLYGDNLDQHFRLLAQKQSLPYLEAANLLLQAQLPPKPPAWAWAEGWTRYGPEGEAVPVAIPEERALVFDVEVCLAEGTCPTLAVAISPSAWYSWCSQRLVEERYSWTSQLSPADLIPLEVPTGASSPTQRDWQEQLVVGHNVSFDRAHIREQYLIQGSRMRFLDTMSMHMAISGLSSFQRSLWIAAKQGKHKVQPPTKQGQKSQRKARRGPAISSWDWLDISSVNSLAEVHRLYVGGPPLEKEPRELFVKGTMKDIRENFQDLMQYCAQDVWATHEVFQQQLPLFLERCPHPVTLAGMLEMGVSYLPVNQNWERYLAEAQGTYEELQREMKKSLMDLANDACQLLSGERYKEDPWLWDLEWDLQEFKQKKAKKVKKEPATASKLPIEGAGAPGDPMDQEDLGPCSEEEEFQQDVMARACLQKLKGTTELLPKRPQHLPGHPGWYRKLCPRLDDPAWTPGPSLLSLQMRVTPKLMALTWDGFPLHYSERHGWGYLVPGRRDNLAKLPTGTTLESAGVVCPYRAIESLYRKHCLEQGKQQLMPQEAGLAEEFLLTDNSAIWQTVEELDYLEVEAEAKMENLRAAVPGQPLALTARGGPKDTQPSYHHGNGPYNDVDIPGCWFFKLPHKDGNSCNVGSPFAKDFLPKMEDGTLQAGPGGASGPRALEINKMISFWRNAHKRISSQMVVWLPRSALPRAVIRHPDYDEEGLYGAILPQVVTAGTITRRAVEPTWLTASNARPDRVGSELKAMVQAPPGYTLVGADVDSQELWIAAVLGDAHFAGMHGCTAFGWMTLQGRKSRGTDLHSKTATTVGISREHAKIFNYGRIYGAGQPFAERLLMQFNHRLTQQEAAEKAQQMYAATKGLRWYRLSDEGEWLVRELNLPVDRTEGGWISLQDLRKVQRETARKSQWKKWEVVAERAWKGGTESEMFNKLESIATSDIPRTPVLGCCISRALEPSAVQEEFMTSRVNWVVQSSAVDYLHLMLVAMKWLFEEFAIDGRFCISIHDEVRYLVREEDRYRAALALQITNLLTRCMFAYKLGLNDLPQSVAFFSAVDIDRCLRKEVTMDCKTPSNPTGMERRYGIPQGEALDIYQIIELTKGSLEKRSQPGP

[22] = molecular target: T1, DNA polymerase subunit gamma-1 (Homo sapiens); assay: Substrate activity at human DNA polymerase gamma assessed as elongation of primer at 250 uM incubated for 120 mins in presence of primer/template mixture and dNTPs by primer extension assay based fluorescence analysis
[23] = Prodrug conversion of the compound in phosphate buffer saline assessed as Tenofovir monophosphate formation by measuring half life at pH 7.3 by RP18-HPLC analysis; type: ADME
[24] = Prodrug conversion of the compound in phosphate buffer saline assessed as Tenofovir monophosphate by measuring half life in presence of pig liver esterase at pH 7.3 by RP18-HPLC analysis; type: ADME, Sus scrofa
[25] = test system: Human immunodeficiency virus 2; assay: Potency index, ratio of Tenofovir EC50 to test compound EC50 for antiviral activity against HIV-2 ROD infected in thymidine kinase deficient human CEM cells; type: functional
[26] = test system: Human immunodeficiency virus; assay: Substrate activity at HIV reverse transcriptase assessed as n+1 band formation incubated for 30 mins in presence of primer/template mixture and 2.6 fold excess of dNTPs by primer extension assay based fluorescence analysis

## CCCCCCCCCCCCCCCCCCOP(=O)(OCc1ccc(OC(=O)CCCC)cc1)OP(=O)(O)OP(=O)(O)CO[C@H](C)Cn1cnc2c(N)ncnc21 (stereo partly specified)
[1]
  t1/2: 51 h
[2]
  t1/2: 0.683 h
[3]
  half-life: 2.1 h
[4]
  Retention_time: 17.5 min
[5]
  EC50: 150 nM
[6]
  EC50: 76 nM
[7]
  EC50: 58 nM
[8]
  CC50: 57200 nM
[9]
  selectivity ratio: 986
[10]
  Ratio EC50: 13
[11]
  Ratio EC50: 23

## C[C@H](Cn1cnc2c(N)ncnc21)OCP(=O)(O)OP(=O)(O)OP(=O)(O)O
[12]
  Activity: Active
[13]
  Activity: Active
[14]
  Activity: Active
[15]
  Activity: Active
[16]
  inhibition: Active
[17]
  Activity: inactive
[18]
  inhibition: Active
[19]
  Activity: Active
[20]
  Activity: Active
[21]
  Activity: inactive
[22]
  Activity: Active

## CCCCCCCCC(=O)Oc1ccc(COOP(=O)(O)OP(=O)(O)OP(=O)(O)CO[C@H](C)Cn2cnc3c(N)ncnc32)cc1
[1]
  t1/2: 9 h
[23]
  t1/2: > 200 h
[2]
  t1/2: 0.00267 h
[24]
  t1/2: 3.6 s
[3]
  half-life: 0.97 h
[4]
  Retention_time: 16.4 min
[5]
  EC50: 1130 nM
[6]
  EC50: 350 nM
[7]
  EC50: 560 nM
[8]
  CC50: 48900 nM
[9]
  selectivity ratio: 87

## CCCCCCCCCCCCCCCCCCOP(=O)(O)OP(=O)(O)OP(=O)(O)CO[C@H](C)Cn1cnc2c(N)ncnc21
[1]
  t1/2: > 200 h
[2]
  t1/2: > 50 h
[3]
  half-life: > 8 h
[4]
  Retention_time: 14.2 min
[12]
  Activity: Active
[13]
  Activity: inactive
[14]
  Activity: Active
[16]
  inhibition: Active
[18]
  inhibition: Active
[21]
  Activity: inactive
[22]
  Activity: Active
[5]
  EC50: 360 nM
[6]
  EC50: 700 nM
[7]
  EC50: 27 nM
[8]
  CC50: > 100000 nM
[9]
  selectivity ratio: > 3700
[25]
  Ratio EC50: 32
[26]
  Activity: Active
